Assay results as given in patent US20250325562A1, “Intravenous Ganaxolone Formulations and Methods of Use in Treating Status Epilepticus and Other Seizure Disorders” (MARINUS PHARMACEUTICALS, INC., priority 2015, published 2025).

Columns and labels:
[1] = in vivo; cited from earlier work
[2] = test system: pilocarpine induced status epilepticus (SE); experiment: Pilocarpine-induced status epilepticus in rats, cortical EEG power; format: in vivo, Male Sprague-Dawley rats; design: key to Treatment effect on EEG power vs vehicle, significance: * P < 0.05; ** P < 0.01; *** P < 0.001; **** P < 0.0001; ns = not significant; settings: 15 mg/kg IV
Procedure: This study was designed to determine the ability of a CAPTISOL-ganaxolone (GNX) formulation administered intravenously (IV) at 12 and 15 mg/kg to inhibit pilocarpine induced status epilepticus (SE). Allopregnanolone (Allo) (15 mg/kg; IV) was also evaluated for comparison. In this study, test drugs were administered either 15 or 60 minutes after onset of SE and compared to vehicle (30% Captisol).
Cortical EEG activity was recorded in rats before and after administration of pilocarpine to induce SE. Animals were pre-treated with LiCl to enhance and improve reliability of seizure induction and scopolamine to reduce peripheral cholinergic side effects of pilocarpine. EEG activity was recorded for 5 h after SE onset, and anticonvulsant activity was assessed by determining changes in EEG power over frequency ranges from 0.3 to 96 Hz.
Male Sprague-Dawley rats were used for the studies. Rats were surgically implanted with EEG electrodes and jugular vein catheters. The mean weight at the time of recording was 321+3 g (269-351 g).
EEG electrodes were surgically implanted in anesthetized rats. Animals were also treated with an anti-inflammatory anaelgesic (RIMADYL, (carprofen)) prior to surgery and a subcutaneous local anesthetic. Stainless steel screw electrodes chronically were implanted in the skull (0-80×¼″, Plastics-One, Roanoke, VA) such that the ends of the screws were flush with the inner skull surface. One electrode was located 3.0 mm anterior to bregma and 2 mm to the left of midline, and the second 4.0 mm posterior to bregma and 2.5 mm to the right of midline. The skull surface around the electrodes was sealed with super glue and dental acrylic, and the EEG electrode lead wires were inserted into a plastic pedestal mounted on the skull using dental acrylic. Wound edges were treated with triple antibiotic cream (bacitracin zinc, neomycin sulfate, polymyxin B sulfate; Walgreens). Following surgery, animals were administered antibiotic (ampicillin, 50 mg/kg IP at 0.4 mL/kg) and also received a chewable dose (˜10 mg) of Rimadyl following surgery. The animals were allowed to recover from EEG surgery for 1 week.
Rats were implanted with jugular-vein catheters (JVC) one week following EEG surgery. Rats were administered an anti-inflammatory/analgesic and then anesthetized and placed in a supine position. An incision was made in the skin on the right ventrolateral aspect of the neck to expose the external jugular vein which was then dissected free of surrounding fascia. A ligature was tied around the vein anteriorly to occlude blood flow returning to the heart. A second ligature was loosely tied around the vein posteriorly to create tension on the vessel during venotomy and catheter insertion. After incising the vein, a PE catheter (3Fr) was inserted into the vein and advanced approximately 30 mm towards the heart, positioning the tip at the junction of the precava and right atrium. After confirming patency of the catheter by blood withdrawal, the posterior ligature was tied off, and the catheter flushed with a “heparin-lock” solution (5 units heparin/ml saline) and plugged with a sterilized stainless steel pin. The catheter was then exteriorized by tunneling through the subcutaneous tissue to exit posterior to the head between the shoulder blades. Lastly, after suturing the catheter to the skin, all wounds were closed using sutures or wound clips. Immediately following surgery, the animals were awakened to assess catheter patency. Animals also received a chewable dose (˜10 mg) of Rimadyl following surgery to minimize pain and inflammation.
Animals were allowed a 1-week recovery time following JVC surgery. Jugular vein catheters were flushed daily with a 0.1 mL of heparin solution (5 units/mL) to maintain patency. On the day of surgery, the flushing solution contained ampicillin sulbactam (50 mg/kg). […]

## CC(=O)[C@H]1CC[C@H]2[C@@H]3CC[C@H]4C[C@H](O)CC[C@]4(C)[C@H]3CC[C@]12C [Allopregnanolone]
[1]
  half-life: very short
[2]; 60′ dosing delay, 0-5 and 5-10 Hz
  reduction in SE: strong reduction in SE in the first 15′ after dosing
[2]; 15 min post SE onset, 0-5 Hz, 0-15 min. post drug
  Treatment effect on EEG power vs vehicle, significance: **** (**** P < 0.0001)
[2]; 15 min post SE onset, 0-5 Hz, 1-2 hrs post drug
  Treatment effect on EEG power vs vehicle, significance: *** (*** P < 0.001)
[2]; 15 min post SE onset, 0-5 Hz, 2-3 hrs post drug
  Treatment effect on EEG power vs vehicle, significance: * (* P < 0.05)
[2]; 15 min post SE onset, 0-5 Hz, 3-5 hrs post drug
  Treatment effect on EEG power vs vehicle, significance: ns
[2]; 15 min post SE onset, 0-5 Hz, 15-30 min post drug
  Treatment effect on EEG power vs vehicle, significance: **** (**** P < 0.0001)
[2]; 15 min post SE onset, 0-5 Hz, 30-60 min post drug
  Treatment effect on EEG power vs vehicle, significance: **** (**** P < 0.0001)
[2]; 15 min post SE onset, 5-10 Hz, 0-15 min. post drug
  Treatment effect on EEG power vs vehicle, significance: **** (**** P < 0.0001)
[2]; 15 min post SE onset, 5-10 Hz, 1-2 hrs post drug
  Treatment effect on EEG power vs vehicle, significance: *** (*** P < 0.001)
[2]; 15 min post SE onset, 5-10 Hz, 2-3 hrs post drug
  Treatment effect on EEG power vs vehicle, significance: ns
[2]; 15 min post SE onset, 5-10 Hz, 3-5 hrs post drug
  Treatment effect on EEG power vs vehicle, significance: ns
[2]; 15 min post SE onset, 5-10 Hz, 15-30 min post drug
  Treatment effect on EEG power vs vehicle, significance: **** (**** P < 0.0001)
[2]; 15 min post SE onset, 5-10 Hz, 30-60 min post drug
  Treatment effect on EEG power vs vehicle, significance: **** (**** P < 0.0001)
[2]; 15 min post SE onset, 10-30 Hz, 0-15 min. post drug
  Treatment effect on EEG power vs vehicle, significance: **** (**** P < 0.0001)
[2]; 15 min post SE onset, 10-30 Hz, 1-2 hrs post drug
  Treatment effect on EEG power vs vehicle, significance: ** (** P < 0.01)
[2]; 15 min post SE onset, 10-30 Hz, 2-3 hrs post drug
  Treatment effect on EEG power vs vehicle, significance: ns
[2]; 15 min post SE onset, 10-30 Hz, 3-5 hrs post drug
  Treatment effect on EEG power vs vehicle, significance: ns
[2]; 15 min post SE onset, 10-30 Hz, 15-30 min post drug
  Treatment effect on EEG power vs vehicle, significance: **** (**** P < 0.0001)
[2]; 15 min post SE onset, 10-30 Hz, 30-60 min post drug
  Treatment effect on EEG power vs vehicle, significance: *** (*** P < 0.001)
[2]; 15 min post SE onset, 30-50 Hz, 0-15 min. post drug
  Treatment effect on EEG power vs vehicle, significance: **** (**** P < 0.0001)
[2]; 15 min post SE onset, 30-50 Hz, 1-2 hrs post drug
  Treatment effect on EEG power vs vehicle, significance: ns
[2]; 15 min post SE onset, 30-50 Hz, 2-3 hrs post drug
  Treatment effect on EEG power vs vehicle, significance: ns
[2]; 15 min post SE onset, 30-50 Hz, 3-5 hrs post drug
  Treatment effect on EEG power vs vehicle, significance: ns
[2]; 15 min post SE onset, 30-50 Hz, 15-30 min post drug
  Treatment effect on EEG power vs vehicle, significance: **** (**** P < 0.0001)
[2]; 15 min post SE onset, 30-50 Hz, 30-60 min post drug
  Treatment effect on EEG power vs vehicle, significance: *** (*** P < 0.001)
[2]; 15 min post SE onset, 50-70 Hz, 0-15 min. post drug
  Treatment effect on EEG power vs vehicle, significance: *** (*** P < 0.001)
[2]; 15 min post SE onset, 50-70 Hz, 1-2 hrs post drug
  Treatment effect on EEG power vs vehicle, significance: ns
[2]; 15 min post SE onset, 50-70 Hz, 2-3 hrs post drug
  Treatment effect on EEG power vs vehicle, significance: ns
[2]; 15 min post SE onset, 50-70 Hz, 3-5 hrs post drug
  Treatment effect on EEG power vs vehicle, significance: ns
[2]; 15 min post SE onset, 50-70 Hz, 15-30 min post drug
  Treatment effect on EEG power vs vehicle, significance: *** (*** P < 0.001)
[2]; 15 min post SE onset, 50-70 Hz, 30-60 min post drug
  Treatment effect on EEG power vs vehicle, significance: ** (** P < 0.01)
[2]; 15 min post SE onset, 70-96 Hz, 0-15 min. post drug
  Treatment effect on EEG power vs vehicle, significance: *** (*** P < 0.001)
[2]; 15 min post SE onset, 70-96 Hz, 1-2 hrs post drug
  Treatment effect on EEG power vs vehicle, significance: ns
[2]; 15 min post SE onset, 70-96 Hz, 2-3 hrs post drug
  Treatment effect on EEG power vs vehicle, significance: ns
[2]; 15 min post SE onset, 70-96 Hz, 3-5 hrs post drug
  Treatment effect on EEG power vs vehicle, significance: ns
[2]; 15 min post SE onset, 70-96 Hz, 15-30 min post drug
  Treatment effect on EEG power vs vehicle, significance: *** (*** P < 0.001)
[2]; 15 min post SE onset, 70-96 Hz, 30-60 min post drug
  Treatment effect on EEG power vs vehicle, significance: ** (** P < 0.01)
[2]; 15 minutes post-seizure onset
  reduction in SE: strong reduction in SE up to 1 h post dosing
[2]; 60 min post SE onset, 0-5 Hz, 0-15 min. post drug
  Treatment effect on EEG power vs vehicle, significance: ** (** P < 0.01)
[2]; 60 min post SE onset, 0-5 Hz, 1-2 hrs post drug
  Treatment effect on EEG power vs vehicle, significance: ns
[2]; 60 min post SE onset, 0-5 Hz, 2-3 hrs post drug
  Treatment effect on EEG power vs vehicle, significance: ns
[2]; 60 min post SE onset, 0-5 Hz, 3-5 hrs post drug
  Treatment effect on EEG power vs vehicle, significance: ns
[2]; 60 min post SE onset, 0-5 Hz, 15-30 min post drug
  Treatment effect on EEG power vs vehicle, significance: ns
[2]; 60 min post SE onset, 0-5 Hz, 30-60 min post drug
  Treatment effect on EEG power vs vehicle, significance: Ns
[2]; 60 min post SE onset, 5-10 Hz, 0-15 min. post drug
  Treatment effect on EEG power vs vehicle, significance: ** (** P < 0.01)
[2]; 60 min post SE onset, 5-10 Hz, 1-2 hrs post drug
  Treatment effect on EEG power vs vehicle, significance: ns
[2]; 60 min post SE onset, 5-10 Hz, 2-3 hrs post drug
  Treatment effect on EEG power vs vehicle, significance: ns
[2]; 60 min post SE onset, 5-10 Hz, 3-5 hrs post drug
  Treatment effect on EEG power vs vehicle, significance: ns
[2]; 60 min post SE onset, 5-10 Hz, 15-30 min post drug
  Treatment effect on EEG power vs vehicle, significance: ns
[2]; 60 min post SE onset, 5-10 Hz, 30-60 min post drug
  Treatment effect on EEG power vs vehicle, significance: Ns
[2]; 60 min post SE onset, 10-30 Hz, 0-15 min. post drug
  Treatment effect on EEG power vs vehicle, significance: ns
[2]; 60 min post SE onset, 10-30 Hz, 1-2 hrs post drug
  Treatment effect on EEG power vs vehicle, significance: ns
[2]; 60 min post SE onset, 10-30 Hz, 2-3 hrs post drug
  Treatment effect on EEG power vs vehicle, significance: ns
[2]; 60 min post SE onset, 10-30 Hz, 3-5 hrs post drug
  Treatment effect on EEG power vs vehicle, significance: ns
[2]; 60 min post SE onset, 10-30 Hz, 15-30 min post drug
  Treatment effect on EEG power vs vehicle, significance: ns
[2]; 60 min post SE onset, 10-30 Hz, 30-60 min post drug
  Treatment effect on EEG power vs vehicle, significance: Ns
[2]; 60 min post SE onset, 30-50 Hz, 0-15 min. post drug
  Treatment effect on EEG power vs vehicle, significance: ns
[2]; 60 min post SE onset, 30-50 Hz, 1-2 hrs post drug
  Treatment effect on EEG power vs vehicle, significance: ns
[2]; 60 min post SE onset, 30-50 Hz, 2-3 hrs post drug
  Treatment effect on EEG power vs vehicle, significance: ns
[2]; 60 min post SE onset, 30-50 Hz, 3-5 hrs post drug
  Treatment effect on EEG power vs vehicle, significance: ns
[2]; 60 min post SE onset, 30-50 Hz, 15-30 min post drug
  Treatment effect on EEG power vs vehicle, significance: ns
[2]; 60 min post SE onset, 30-50 Hz, 30-60 min post drug
  Treatment effect on EEG power vs vehicle, significance: Ns
[2]; 60 min post SE onset, 50-70 Hz, 0-15 min. post drug
  Treatment effect on EEG power vs vehicle, significance: ns
[2]; 60 min post SE onset, 50-70 Hz, 1-2 hrs post drug
  Treatment effect on EEG power vs vehicle, significance: ns
[2]; 60 min post SE onset, 50-70 Hz, 2-3 hrs post drug
  Treatment effect on EEG power vs vehicle, significance: ns
[2]; 60 min post SE onset, 50-70 Hz, 3-5 hrs post drug
  Treatment effect on EEG power vs vehicle, significance: ns
[2]; 60 min post SE onset, 50-70 Hz, 15-30 min post drug
  Treatment effect on EEG power vs vehicle, significance: ns
[2]; 60 min post SE onset, 50-70 Hz, 30-60 min post drug
  Treatment effect on EEG power vs vehicle, significance: Ns
[2]; 60 min post SE onset, 70-96 Hz, 0-15 min. post drug
  Treatment effect on EEG power vs vehicle, significance: ns
[2]; 60 min post SE onset, 70-96 Hz, 1-2 hrs post drug
  Treatment effect on EEG power vs vehicle, significance: ns
[2]; 60 min post SE onset, 70-96 Hz, 2-3 hrs post drug
  Treatment effect on EEG power vs vehicle, significance: ns
[2]; 60 min post SE onset, 70-96 Hz, 3-5 hrs post drug
  Treatment effect on EEG power vs vehicle, significance: ns
[2]; 60 min post SE onset, 70-96 Hz, 15-30 min post drug
  Treatment effect on EEG power vs vehicle, significance: ns
[2]; 60 min post SE onset, 70-96 Hz, 30-60 min post drug
  Treatment effect on EEG power vs vehicle, significance: Ns
